Data published in patent US9107905B2 (Agency for Science, Technology and Research, priority 2006, dated 2015).
Where two headings read alike, the source gives them in different places.

Experiments:
[1] = test system: GST-LRR fusion protein (LRR domain of CaCdc35p); experiment: circular dichroism (CD) spectroscopy of recombinant LRR domain; type: binding, Candida albicans
Excerpt: Next, the possibility that MLA 71Q may directly bind to the LRR domain of CaCdc35p was explored. The wild-type LRR domain and that of Irr9mu were expressed in E. coli as glutathione-S-transferase (GST) fusions and purified to high homogeneity. Then circular dichroism (CD) spectroscopy was used to detect possible direct interaction between the LRR domain and MLADIQ. CD is a reliable tool in detecting conformational changes in a protein as a result of ligand binding (Woody, R. W. (1995). Methods Enzymol. 246, 34-71).

[2] = biological target: GST-LRR fusion (LRR domain of CaCdc35p) (Candida albicans, UniProt A0A1D8PR83); experiment: tryptophan fluorescence quenching of recombinant LRR domain; type: binding; conditions: for Kd: nonlinear regression of fluorescence quenching, read-out: equilibrium dissociation constant (Kd); for fluorescence quenching: result in words
Excerpt: Since specific binding of a molecule to a tryptophan-containing protein may cause concentration-dependent quenching; of tryptophan fluorescence, fluorescence spectroscopy was used to measure the intensity of tryptophan fluorescence of the recombinant LRR domains in the presence of different concentrations of MLADiQ. […] The fluorescence spectrum of GST was not affected by any of the compounds used.

C. albicans yeast cells = experiment: hyphal induction assay (germ tube formation, yeast-hypha switch); type: cell-based, Candida albicans; conditions: for EC50: read-out: I50 (hyphal induction); for hypha-inducing activity: result in words
[3] = synthetic compounds and reference inducer

Sequence of GST-LRR fusion (LRR domain of CaCdc35p) (A0A1D8PR83 entry or part of it): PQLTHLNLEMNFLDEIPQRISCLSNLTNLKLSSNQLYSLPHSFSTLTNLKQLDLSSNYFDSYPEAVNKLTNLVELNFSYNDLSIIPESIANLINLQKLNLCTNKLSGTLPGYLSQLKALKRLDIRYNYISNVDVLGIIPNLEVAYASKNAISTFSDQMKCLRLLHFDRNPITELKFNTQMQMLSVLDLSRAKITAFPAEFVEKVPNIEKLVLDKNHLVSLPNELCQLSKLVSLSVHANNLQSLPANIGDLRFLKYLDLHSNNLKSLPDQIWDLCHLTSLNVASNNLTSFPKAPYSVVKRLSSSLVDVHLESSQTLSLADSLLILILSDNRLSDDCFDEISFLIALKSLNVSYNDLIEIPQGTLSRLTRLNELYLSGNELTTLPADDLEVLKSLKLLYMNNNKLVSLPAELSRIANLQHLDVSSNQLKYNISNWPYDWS

| Structure (SMILES) | shift of the ellipticity values of the CD spectra [1] | Kd [2] | fluorescence quenching [2] | hypha-inducing activity (C. albicans yeast cells) | EC50 (C. albicans yeast cells; [3]) | further results |
| --- | --- | --- | --- | --- | --- | --- |
| C[C@H](NC(=O)[C@@H](C)O[C@H]1[C@H](O)[C@@H](CO)OC(O)[C@@H]1N)C(=O)O (stereo partly drawn) | weaker but consistent spectrum shift | 1.67 ± 0.13 µM | lower levels of fluorescence quenching |  |  | EC50 (C. albicans yeast cells; synthetic compounds): ~200 µM |
| CC(=O)N[C@H]1C(O)O[C@H](CO)[C@@H](O)[C@@H]1O[C@H](C)C(=O)O (stereo partly drawn) [N-acetylmuramic acid, reference compound] |  |  |  | Neither muramic nor N-acetylmuramic acid was active |  |  |
| CC(=O)N[C@H]1C(O)O[C@H](CO)[C@@H](O)[C@@H]1O (stereo partly drawn) [NAG, N-Acetylglucosamine, reference compound] | weaker but consistent spectrum shift | 6.8 ± 0.32 µM | lower levels of fluorescence quenching |  | ~3000 µM |  |
| CC(=O)NC1C(O)OC(CO)C(O)C1OC(C)C(=O)NC(C)C(=O)O [NMLA, N-acetylmurmyl-L-alanine] |  |  |  |  | ~8000 µM |  |
| CC(=O)NC1C(O)OC(CO)C(O)C1OC(C)C(=O)NC(C)C(=O)NC(CCC(=O)O)C(N)=O [NMLADiQ, N-acetylmuramyl-L-alanyl-D isoglutamine] | weaker but consistent spectrum shift | 5.26 ± 0.47 µM | lower levels of fluorescence quenching |  | ~6000 µM | concentration above which the activity started to drop significantly (C. albicans yeast cells): above 20 mM; highest germ tube formation induced (C. albicans yeast cells; at increased concentrations): ≤ 60%; times less active than MLADiQ (C. albicans yeast cells; from I50): 600 times |
| O=C(CO)[C@@H](O)[C@H](O)[C@H](O)CO [fructose, reference compound] |  |  |  | none of these compounds was found to have appreciable hypha-inducing activity |  |  |
| OCC(O)CO [glycerol, reference compound] |  |  |  | none of these compounds was found to have appreciable hypha-inducing activity |  |  |
| CC(O)C(=O)O (stereo not drawn) [lactic acid, reference compound] |  |  |  | none of these compounds was found to have appreciable hypha-inducing activity |  |  |
| C[C@@H](O[C@H]1[C@H](O)[C@@H](CO)OC(O)[C@@H]1N)C(=O)O (stereo partly drawn) [muramic, muramic acid, reference compound] |  |  |  | Neither muramic nor N-acetylmuramic acid was active |  |  |
